We go through 2 compounds from patent publication US8653271B2 (priority 2006, dated 2014).

Molecules are shown by their SMILES. “And” between values parts separate entries of the source, which are not always exact repeats. Identical values can stand only once.

The nature of one data set: physchem. The class given is physicochemical. The conditions noted are these: for Light mineral oil solubility: 32° C., 48 h equilibration (Table 3); for Hanks' buffer solubility: pH 7.4, 32° C., 30 min sonication. The method, then:
The solubilities of CB-NTXOL-BUPOH, hydroxybupropion, and 6-β-naltrexol were determined by adding excess quantity of drug to mineral oil or pre-warmed HEPES-buffered Hanks' salt solution pH 7.4 at 32° C. (skin surface temperature), with equilibration while shaking in a water bath at 60 rpm. Weighing 4 mg of each of the drugs and placing them in 1 ml of each of the respective solvents was enough to ensure that there was excess drug in solution. Samples were drawn into a pre-warmed glass syringe, filtered through a syringe filter (Mineral oil: Millex FG-13, Millipore, Billerica, Mass., USA, and buffer: nylon filter, Gelman, East Hills, N.Y., USA), and measured with respect to volume and diluted with an appropriate volume of acetonitrile or buffer. The drug from the buffer samples was immediately extracted by solid phase extraction as described above. Drugs in mineral oil were diluted with a hundred-fold volume of acetonitrile and extraction recoveries were >95% for all the drugs. The sampling procedure was done in triplicate, discarding the first 40% of the initial filtrate. […]. For buffer solubilities, samples were taken after 30 min of sonication (to minimize the hydrolysis of the codrug). No significant difference was found between 30 min sonication solubility measurements and equilibrium solubility measurements taken after 48 h for 6-β-naltrexol.

For data set [1] the following is noted: human skin; for Mean permeability coefficient (KP × 10^3): from steady-state flux and donor solubility; for Flux from mineral oil: saturated solution in light mineral oil, 32° C., 48 h, codrug in 6-β-naltrexol equivalents. The method, then: Human skin harvested during abdominal reduction surgery was used for the diffusion studies. Skin sections were obtained by using a Padgett dermatome set to 250 μm; these sections were stored at −20° C. Stored skin samples were thawed to room temperature at the time of the experiment. A PermeGear flow-through (In-Line, Riegelsville, Pa., USA) diffusion cell system was used for the skin permeation studies. Skin surface temperature was maintained at 32° C. with a circulating water bath. Data was collected by using human skin from a single donor with three cells of 6-β-naltrexol and four cells CB-NTXOL-BUPOH. Because of normal human skin inter-subject permeation variability, the codrug was compared against 6-β-naltrexol permeation within each individual skin sample. These studies were repeated three times with skin from different human subject donors. The receiver solution was HEPES-buffered Hanks' balanced salt solution pH 7.4 set at a flow rate of 1.1 ml/h. […] A saturated solution of 6-β-naltrexol or CB-NTXOL-BUPOH in light mineral oil was applied to the skin in order to maintain a maximum and constant thermodynamic activity of the drug. Each cell was charged with 0.25 ml of the respective drug solution. […] All samples were immediately processed by solid phase extraction, evaporated under nitrogen, reconstituted, and analyzed for drug content by HPLC. The human tissue use was approved by the University of Kentucky Institutional Review Board.
Cumulative quantity of drug collected in the receiver compartment was plotted as a function of time. The flux value for a given experiment was obtained from the slope of the steady-state portion of the cumulative amount of drug permeated vs. time plot. Apparent permeability coefficient values were computed from Fick's First Law of diffusion:
Sink conditions were maintained in the receiver throughout the experiment, so ΔC was approximated by the drug concentration (solubility in this case) in the donor compartment.
The skin tissue was rinsed with filtered water and blotted with a paper towel. The tissue was tape-stripped twice to remove surface formulation. The area of skin with drug contact was cut out, chopped into tiny pieces, and placed in a pre-weighed vial. The vial was weighed to calculate the mass of the skin. Ten milliliters of acetonitrile was added to each vial, the vials vortexed, sonicated for 10 min, and placed in a shaker overnight. The following day, a 1 ml sample was obtained from the vials and placed in autosampler vials for analysis. […] Flux values and skin concentrations for each of the drugs were reported as mean±S.D and were statistically compared using a paired Student's t-test. Flux enhancement as well as drug disposition in the skin were considered significant at p<0.05.

Data set [2] can be described thus: Permeation studies in guinea pigs in vivo (topical gel, plasma pharmacokinetics). Also noted: species or system hairless guinea pigs. As to conditions: for Enhancement factor (delivery of 6-β-naltrexol in vivo): codrug gel versus 6-β-naltrexol base gel, guinea pigs; for Tlag of 6-β-naltrexol: lag time to steady-state; for Tlag of 6-β-naltrexol / AUC0-48 of 6-β-naltrexol / Cmax of 6-β-naltrexol / Tmax of 6-β-naltrexol / Observed CSS of 6-β-naltrexol: topical gel; for Tlag of 6-β-naltrexol / Cmax of 6-β-naltrexol / Tmax of 6-β-naltrexol / Observed CSS of 6-β-naltrexol: hairless guinea pigs; for AUC0-48 of 6-β-naltrexol / Cmax of 6-β-naltrexol / Tmax of 6-β-naltrexol: plasma; for AUC0-48 of 6-β-naltrexol: 14.5 cm^2, hairless guinea pigs; for Observed CSS of 6-β-naltrexol: steady-state plasma concentration, 48 h; for intact codrug in guinea pig plasma after topical application: in vivo plasma samples. As for the experimental part:
A hydroxyethyl cellulose-based gel was prepared for topical application. First, either CB-NTXOL-BUPOH or 6-β-naltrexol (˜25 mg each) was dissolved in 1 ml of PG:buffer, pH 7.4 (2:3, v/v) solution using a magnetic stirrer. Hydroxyethyl cellulose (2%, w/w) was dispersed into these mixtures, sonicated, vortexed, and allowed to form a gel at room temperature. The drug in each formulation was saturated, forming a suspension.
Male and female Hairless IAF and Hartley guinea pigs (Charles River) weighing 345-482 g were used for topical studies (n=5 to 6 per treatment group). Prior to surgery, the animals were treated with glycopyrrolate and buprenorphine (to induce analgesia), and then ketamine (100 mg/kg, i.p.) and xylazine (8 mg/kg, i.m.) were used for anesthetic purposes. Catheters were surgically implanted into the jugular vein. A “blank” baseline plasma sample was drawn from each animal immediately before drug treatment. 500 μL of the gel containing the drug was applied onto the dorsal region of the guinea pig with a syringe and subsequently spread to cover an area of 7.25 cm^2. A rubber ring fitted with a drug-impermeable backing laminate (MEDIFLEX® 1502) was used to enclose the area of gel application. ARcare® acrylic adhesive was used to ensure that the ring maintained contact with the skin. Additionally, a bio-occlusive tape was placed over the patches to further secure the formulation on the guinea pigs. Drug formulations were applied on both sides of each guinea pig to give a total application area of 14.5 cm^2. Plasma samples were obtained at predetermined time intervals, which included 48 h while the formulations were on the animal, and for another 48 h after patches and formulations were removed. Blood samples were immediately centrifuged at 10,000×g for 3 min, and the plasma was separated. Plasma samples were stored at −70° C. until analysis by liquid chromatographic mass spectrometry, LC-MS.
Topical administration data were analyzed by non-compartmental analysis to determine mean steady-state plasma concentration (CSS), lag time to steady-state (tlag), and area under the curve from 0 to 48 h, AUC0-48.

A short description of data set [3]: Predicting plasma concentrations from in vitro permeation studies. As to conditions: for plasma level predicted with 5.6-fold guinea pig/human skin factor: 6-β-naltrexol equivalents; for Predicted CSS of 6-β-naltrexol: Predicted from in vitro human skin diffusion data. From the text: To predict the plasma concentration of 6-β-naltrexol after application of the gel formulation containing either the codrug or the control formulation, the following equation was used: […]
where CSS is the predicted steady state plasma concentration (ng/ml); JSS is the steady-state flux from in vitro permeation in Table 4 from previous studies; A is the area of the skin in contact with the formulation (14.5 cm^2); Cl is the total body clearance. […] Guinea pig skin is often more permeable than human skin, especially when the stratum corneum is the major rate-limiting step in the absorption process.

The conditions of data set [4]: human skin, values obtained from Kiptoo et al., cited from earlier work; for In vitro flux: codrug as NTXOL equivalent flux.
The mark [5] stands for this setting: cumulative 6-β-naltrexol equivalents permeated.

As to `Oc1ccc2c3c1O[C@H]1[C@H](O)CC[C@@]4(O)[C@@H](C2)N(CC2CC2)CC[C@]314` [Compound 2, 6-β-naltrexol], in “physchem”, the “Light mineral oil solubility” value amounted to 30 µM and the “Hanks' buffer solubility” value is 300 µM. For the same compound, in data set [1], the “Mean permeability coefficient (KP × 10^3)” value worked out at 12.00 cm/h and the “Flux from mineral oil” value was found to be 0.36 nmol cm^−2 h^−1. Besides, in data set [2], the “Enhancement factor (delivery of 6-β-naltrexol in vivo)” value was determined as 1, the “Tlag of 6-β-naltrexol” value amounted to 5.1 ± 0.7 h, the “AUC0-48 of 6-β-naltrexol” value stood at 66.4 ± 7.9 ng·h/mL and the “Cmax of 6-β-naltrexol” value worked out at 1.5 ± 0.2 ng/mL. In data set [2], the “Tmax of 6-β-naltrexol” value is on record as 28.1 ± 1.5 h; the “Observed CSS of 6-β-naltrexol” value was 1.25 ± 0.51 ng/mL and 1.2 ng/mL. Also, the “Observed CSS of 6-β-naltrexol” value in data set [2] (listed as NTXOL) was 1.2 ± 0.5 ng/mL. In data set [3], the “plasma level predicted with 5.6-fold guinea pig/human skin factor” value is 1.1 ng/mL and the “Predicted CSS of 6-β-naltrexol” value was 0.2 ± 0.1 ng/mL. In addition, the “Predicted CSS of 6-β-naltrexol” value in data set [3] (listed as NTXOL) is 0.2 ± 0.1 ng/mL. Further, in data set [4], the In vitro flux is recorded as 0.36 ± 0.15 nmol cm^−2 h^−1 and the “In vitro lag time” value was 15.72 ± 1.76 h.

With `Cc1c(-c2cccc(Cl)c2)oc(=O)n1C(C)(C)COC(=O)Oc1ccc2c3c1OC1C(O)CCC4(O)C(C2)N(CC2CC2)CCC314` (centres unmarked) [Compound 26], in the data set “physchem”, the “Light mineral oil solubility” value was 2880 µM and the “Hanks' buffer solubility” value is 530 µM. In data set [1] (setting [5]), the “share of 6-β-naltrexol flux from intact CB-NTXOL-BUPOH” value was “approximately 35%” and the “share of 6-β-naltrexol flux originating from skin hydrolysis of codrug” value is recorded as 65%. Besides, in data set [1], the “Mean permeability coefficient (KP × 10^3)” value turned out to be 0.47 cm/h and the “Flux from mineral oil” value is on record as 1.34 nmol cm^−2 h^−1. For the same compound, in data set [2], the “Enhancement factor (delivery of 6-β-naltrexol in vivo)” value is “five-fold”, the “Tlag of 6-β-naltrexol” value stood at 5.0 ± 1.1 h, the “AUC0-48 of 6-β-naltrexol” value came out at 282.0 ± 14.5 ng·h/mL and the “Cmax of 6-β-naltrexol” value came out at 6.6 ± 0.4 ng/mL. Also, in data set [2], the “Tmax of 6-β-naltrexol” value was found to be 10.1 ± 0.9 h. In addition, in data set [2] (listed as CB-NTXOL-BUPOH), the “intact codrug in guinea pig plasma after topical application” value was “only trace amounts of intact codrug”; the “Observed CSS of 6-β-naltrexol” value was 6.4 ng/mL and 6.4 ± 0.9 ng/mL. Besides, in data set [2] (listed as codrug), the “intact codrug in guinea pig plasma after topical application” value was “Only trace amounts” and the “Observed CSS of 6-β-naltrexol” value is 6.40 ± 0.93 ng/mL. In addition, in data set [3], the “plasma level predicted with 5.6-fold guinea pig/human skin factor” value was 3.9 ng/mL. In addition, the “Predicted CSS of 6-β-naltrexol” value in data set [3] (listed as CB-NTXOL-BUPOH) was 0.7 ± 0.3 ng/mL. In data set [4], the In vitro flux is recorded as 1.34 ± 0.35 nmol cm^−2 h^−1 and the “In vitro lag time” value is 12.10 ± 0.77 h.
